The data set in a line: Effect of modulating substances on active ingredient delivery in vitro. The data set is classed as physicochemical. The following applies: for effect of modulating substance on rate of active ingredient delivery: in the multilayer pharmaceutical form; for activity of modulating substance in purified water versus phosphate buffer pH 6,8: in-vitro, purified water vs phosphate buffer pH 6,8 (Pharm. Eur.). From the text:
In the human and animal gastrointestinal tract the concentration of ions may vary to a certain extent and thus may influence the activity of the modulating substances. For reproducible in-vivo results substances having a modulating effect, which are not or only a little influenced by varying ionic strength are preferred.

For the compound `O=C([O-])CC(O)(CC(=O)[O-])C(=O)[O-].[Na+].[Na+].[Na+]` [Na citrate], the “effect of modulating substance on rate of active ingredient delivery” value (“effect of modulating substance” for short) is listed as “decrease the rate of active ingredient delivery”.

Take `[Cl-].[Na+]` [sodium chloride]: the “effect of modulating substance” value is “decrease the rate of active ingredient delivery” and the “activity of modulating substance in purified water versus phosphate buffer pH 6,8” value was “almost the same activity”.

Consider `O=C(O)CC(O)(CC(=O)O)C(=O)O` [citric acid], for which the “effect of modulating substance” value is reported as “increase the rate of active ingredient delivery” and the “activity of modulating substance in purified water versus phosphate buffer pH 6,8” value was “almost the same activity”.

With `O=C([O-])CCC(=O)[O-].[Na+].[Na+]` [sodium succinate], the “effect of modulating substance” value is “increase the rate of active ingredient delivery” and the “activity of modulating substance in purified water versus phosphate buffer pH 6,8” value is on record as “almost the same activity”.

As to `CC(=O)[O-].[Na+]` [Na acetate], the “effect of modulating substance” value is reported as “increase the rate of active ingredient delivery”.

These data come from US20080152719A1, “Multiparticulate Pharmaceutical Form Comprising Pellets With a Matrix Which Influences the Delivery of a Modulatory Substance” (ROEHM GMBH, priority 2005, published 2008).
